From paper PMC4071600, “Amino Alcohols from the Ascidian Pseudodistoma sp” (Marine Drugs, 2014)

biological target: T1, Na^+/K^+-ATPase; assay: Na+/K+-ATPase inhibition assay (by reference); format: biochemical
T1 construct: gene ATP1A1; with Sodium/potassium-transporting ATPase subunit beta-1
From the text: Na+/K+-ATPase inhibition assay (by reference) on Na^+/K^+-ATPase

IC50 [µM] | Structure (SMILES)
62 | CCCCCCCCC/C=C/[C@H](O)[C@H](C)N [compound 1, (E)-2-aminotetradec-4-en-3-ol]
78.4 | CCCCCCCC/C=C/C[C@H](O)[C@H](C)N [compound 2, Pseudoaminol B]
> 200 | CCCCCCC/C=C/C=C/[C@H](O)[C@H](C)N [compound 3, Pseudoaminol C]
190 | CCCCCCCC/C=C/C[C@H](O)CN [compound 4, Pseudoaminol D]
101 | CC/C=C\C/C=C\CC/C=C/C=C/[C@H](O)[C@H](C)N [compound 5, Pseudoaminol E]
> 200 | CCCCCCCCC/C=C/[C@H](O)[C@H](C)NCC(=O)O [compound 6, Pseudoaminol F]
> 200 | CC/C=C\C/C=C\CC/C=C/C=C/[C@H](O)[C@H](C)NCC(=O)O [compound 7, Pseudoaminol G]
46.8 | CCCCCCCCCCC[C@H](O)[C@H](C)N [compound 9, Compound 9]

Second part, the compound before the results:

Structure (SMILES) | IC50 [µM]
CCCCCCCCC/C=C/[C@@H]1OC(=O)N[C@H]1C [compound 8, Compound 8] | 71.4
CCCCCCCCCCC[C@H](O)[C@H](C)NC(C)=O [compound 10, Compound 10] | 118
CCCCCCCCCCC[C@H](OC(=O)c1ccccc1)[C@H](C)NC(=O)c1ccccc1 [compound 12, Compound 12] | 108
CCCCCCCCCCC[C@H](O)CN [compound 13, Compound 13] | 130
CCCCCCCCCCC[C@H](O)CNC(C)=O [compound 14, Compound 14] | > 200
